Source: US20260008811A1, “BIOACTIVE PEPTIDES AND COMPOSITIONS COMPRISING THEM” (ESPIKEM S.R.L., priority 2019, published 2026)
Non-standard residues stand in square brackets, D forms with d.

Legend:
[1] = test system: Type I procollagen; test: Western blot of type I procollagen / soluble type I collagen in fibroblast cultures after 72 hours of treatment; format: cell-based, human; conditions: fibroblasts, peptide 20 mM, no FBS, compared with TGF-β1, SA1III, Peptide 1, Peptide 2 (FIG. 1)
Text: Neonatal human dermal fibroblasts (NHDF) have been obtained from Lonza. Cultures of adult dermal fibroblasts have been prepared from cutaneous skin biopsies of healthy donors having different ages, as described in Pani et al. J. Alzheimer's Dis. (2009) 18:829-41, C6 ([…]), C3 (person) and C12 (person). A written informed consent to use these dermal cells was obtained from all the donor subjects involved, according to the Guidelines indicated by the Ethics Committee of the Careggi University Hospital (Florence, Italy) and by the Helsinki Declaration of 1975, as reviewed in the 1983. All cell cultures have been subjected to a similar number of steps, from 6 to 9, at the beginning of the experiments, and were preserved in the modified Dulbecco Eagle culture medium (DMEM, Lonza) added with FBS 10% (Gibco), 100 units/ml of penicillin G, 0.05 mg/ml of streptomycin and glutamine 2 mM (PAN-Biotech GmbH), at 37° C. in a humidified incubator containing 5% of CO2.
The cells were seeded in 12-wells plates (30000 cells per well) and treated the day after with the peptide AAT11RI (20 mM). […]
All treatments have been carried out in the absence of FBS to avoid interferences in the electrophoretic migration. […] The protein content in the lysates was measured using the Bio-Rad DC protein assay kit. […]

[2] = test system: extracellular collagen; conditions: fibroblasts obtained from subjects of various ages; cited from earlier work

Row | Substance | ability to increase the concentration of procollagen in vitro [1] | levels of extracellular collagen [2]
1 | Ac-DAsn-DVal-DVal-DLys-NH2 (Ac-[dN][dV][dV][dK]-NH2) [AAT11RI] | surprisingly higher than all the other products tested | 
2 | SA1-III: C-terminal peptide fragment 409-418 of the serpin A1 molecule, positive control (MGKVVNPTQK) |  | increased levels of extracellular collagen
